Measurements: ChEMBL document CHEMBL3885881, “DrugMatrix”

Species: Rattus norvegicus
Assay: DrugMatrix - Regimen: Daily Repeat
Format: toxicity, organism-based, Sprague-Dawley
Design: regimen Daily Repeat, gender Male, age 6-8 weeks
Settings: in vivo, po, route oral GAVAGE, vehicle .5 % CMC; for ABSOLUTE BASOPHIL / ABSOLUTE EOSINOPHIL / ABSOLUTE LYMPHOCYTE / ABSOLUTE MONOCYTE / ABSOLUTE SEGMENTED NEUTROPHIL / BASOPHIL / EOSINOPHIL / ERYTHROCYTE COUNT / HEMATOCRIT / HEMOGLOBIN / LEUKOCYTE COUNT / LYMPHOCYTE / MEAN CORPUSCULAR HEMOGLOBIN / MEAN CORPUSCULAR HEMOGLOBIN CONCENTRATION / MEAN CORPUSCULAR VOLUME / MONOCYTE / NEUTROPHIL / NUCLEATED RED BLOOD CELLS / PLATELET COUNT: tissue Blood; for ALANINE AMINOTRANSFERASE / ALBUMIN / ALKALINE PHOSPHATASE / ASPARTATE AMINOTRANSFERASE / BLOOD UREA NITROGEN / CARBON DIOXIDE / CHLORIDE / CHOLESTEROL / CREATINE PHOSPHOKINASE / CREATININE / GLUCOSE / LACTATE DEHYDROGENASE / LIPASE / PHOSPHORUS / POTASSIUM / SODIUM / TOTAL BILIRUBIN / TOTAL PROTEIN / URIC ACID: tissue Plasma
[1] = 0 mg/kg, 72 h, dose level Control, time 3 day
[2] = 0 mg/kg, 120 h, dose level Control, time 5 day
[3] = 47 mg/kg, 72 h, dose level High, time 3 day

With `CN(C)C(=O)C(CCN1CCC(O)(c2ccc(Cl)cc2)CC1)(c1ccccc1)c1ccccc1` [LOPERAMIDE] the “ABSOLUTE BASOPHIL” value [1] was 0 CELLS/uL, the “ABSOLUTE EOSINOPHIL” value [1] was 0 CELLS/uL and the “ABSOLUTE LYMPHOCYTE” value [1] was 12191.17 CELLS/uL. The “ABSOLUTE MONOCYTE” value [1] was 183.17 CELLS/uL, the “ABSOLUTE SEGMENTED NEUTROPHIL” value [1] was 1192.33 CELLS/uL and the BASOPHIL [1] was 0%. The EOSINOPHIL [1] was 0%, the “ERYTHROCYTE COUNT” value [1] was 5.51 x10E6/uL and the HEMATOCRIT [1] was 35.45%. The HEMOGLOBIN [1] was 13.82 G/DL, the “LEUKOCYTE COUNT” value [1] was 13.57 x10E3/uL and the LYMPHOCYTE [1] was 89.83%. For the same molecule, the “MEAN CORPUSCULAR HEMOGLOBIN” value [1] was 25.1 pg, the “MEAN CORPUSCULAR HEMOGLOBIN CONCENTRATION” value [1] was 38.98 G/DL and the “MEAN CORPUSCULAR VOLUME” value [1] was 64.42 fL. For the same molecule, the MONOCYTE [1] was 1.33%, the NEUTROPHIL [1] was 8.83% and the “NUCLEATED RED BLOOD CELLS” value [1] was 0 /100WBC. The “PLATELET COUNT” value [1] was 1118.17 x10E3/uL, the “ALANINE AMINOTRANSFERASE” value [1] was 55 u/L and the ALBUMIN [1] was 4.15 G/DL. For the same molecule, the “ALKALINE PHOSPHATASE” value [1] was 449.5 u/L, the “ASPARTATE AMINOTRANSFERASE” value [1] was 112.83 u/L and the “BLOOD UREA NITROGEN” value [1] was 17.33 mg/dL. For the same molecule, the “CARBON DIOXIDE” value [1] was 29.5 mmol/L, the CHLORIDE [1] was 101 MEQ/L and the CHOLESTEROL [1] was 70 mg/dL. The “CREATINE PHOSPHOKINASE” value [1] was 1325.83 u/L, the CREATININE [1] was 0.18 mg/dL and the GLUCOSE [1] was 171.5 mg/dL. For the same molecule, the “LACTATE DEHYDROGENASE” value [1] was 386 u/L, the LIPASE [1] was 10 u/L and the PHOSPHORUS [1] was 11.57 mg/dL. The POTASSIUM [1] was 6.21 MEQ/L, the SODIUM [1] was 141.65 MEQ/L and the “TOTAL BILIRUBIN” value [1] was 0.15 mg/dL. For the same molecule, the “TOTAL PROTEIN” value [1] was 5.75 G/DL, the “URIC ACID” value [1] was 1.28 mg/dL and the “ABSOLUTE BASOPHIL” value [2] was 0 CELLS/uL. The “ABSOLUTE EOSINOPHIL” value [2] was 138.17 CELLS/uL, the “ABSOLUTE LYMPHOCYTE” value [2] was 13283.17 CELLS/uL and the “ABSOLUTE MONOCYTE” value [2] was 303.83 CELLS/uL. For the same molecule, the “ABSOLUTE SEGMENTED NEUTROPHIL” value [2] was 1308.17 CELLS/uL, the BASOPHIL [2] was 0% and the EOSINOPHIL [2] was 1%. The “ERYTHROCYTE COUNT” value [2] was 5.32 x10E6/uL, the HEMATOCRIT [2] was 33.8% and the HEMOGLOBIN [2] was 13.63 G/DL. The “LEUKOCYTE COUNT” value [2] was 15.03 x10E3/uL, the LYMPHOCYTE [2] was 88.33% and the “MEAN CORPUSCULAR HEMOGLOBIN” value [2] was 25.68 pg. For the same molecule, the “MEAN CORPUSCULAR HEMOGLOBIN CONCENTRATION” value [2] was 40.35 G/DL, the “MEAN CORPUSCULAR VOLUME” value [2] was 63.67 fL and the MONOCYTE [2] was 1.83%. For the same molecule, the NEUTROPHIL [2] was 8.83%, the “NUCLEATED RED BLOOD CELLS” value [2] was 0 /100WBC and the “PLATELET COUNT” value [2] was 1097.5 x10E3/uL. The “ALANINE AMINOTRANSFERASE” value [2] was 54.5 u/L, the ALBUMIN [2] was 4.27 G/DL and the “ALKALINE PHOSPHATASE” value [2] was 337 u/L. For the same molecule, the “ASPARTATE AMINOTRANSFERASE” value [2] was 94.67 u/L, the “BLOOD UREA NITROGEN” value [2] was 17 mg/dL and the “CARBON DIOXIDE” value [2] was 28.33 mmol/L. The CHLORIDE [2] was 101.5 MEQ/L, the CHOLESTEROL [2] was 71.33 mg/dL and the “CREATINE PHOSPHOKINASE” value [2] was 628.17 u/L. The CREATININE [2] was 0.19 mg/dL, the GLUCOSE [2] was 177.83 mg/dL and the “LACTATE DEHYDROGENASE” value [2] was 500.5 u/L. For the same molecule, the LIPASE [2] was 9.5 u/L, the PHOSPHORUS [2] was 12.3 mg/dL and the POTASSIUM [2] was 5.63 MEQ/L. For the same molecule, the SODIUM [2] was 143.03 MEQ/L, the “TOTAL BILIRUBIN” value [2] was 0.2 mg/dL and the “TOTAL PROTEIN” value [2] was 6.02 G/DL. For the same molecule, the “URIC ACID” value [2] was 1.5 mg/dL, the “ABSOLUTE BASOPHIL” value [3] was 0 CELLS/uL and the “ABSOLUTE EOSINOPHIL” value [3] was 41.67 CELLS/uL. The “ABSOLUTE LYMPHOCYTE” value [3] was 10763.67 CELLS/uL, the “ABSOLUTE MONOCYTE” value [3] was 116.33 CELLS/uL and the “ABSOLUTE SEGMENTED NEUTROPHIL” value [3] was 1178.33 CELLS/uL. The BASOPHIL [3] was 0%, the EOSINOPHIL [3] was 0.33% and the “ERYTHROCYTE COUNT” value [3] was 5.35 x10E6/uL. The HEMATOCRIT [3] was 35.5%, the HEMOGLOBIN [3] was 13.67 G/DL and the “LEUKOCYTE COUNT” value [3] was 12.1 x10E3/uL. For the same molecule, the LYMPHOCYTE [3] was 89%, the “MEAN CORPUSCULAR HEMOGLOBIN” value [3] was 25.6 pg and the “MEAN CORPUSCULAR HEMOGLOBIN CONCENTRATION” value [3] was 38.47 G/DL. The “MEAN CORPUSCULAR VOLUME” value [3] was 66.47 fL, the MONOCYTE [3] was 1% and the NEUTROPHIL [3] was 9.67%. For the same molecule, the “NUCLEATED RED BLOOD CELLS” value [3] was 0 /100WBC, the “PLATELET COUNT” value [3] was 1353 x10E3/uL and the “ALANINE AMINOTRANSFERASE” value [3] was 75 u/L. For the same molecule, the ALBUMIN [3] was 3.9 G/DL, the “ALKALINE PHOSPHATASE” value [3] was 286.67 u/L and the “ASPARTATE AMINOTRANSFERASE” value [3] was 88 u/L. For the same molecule, the “BLOOD UREA NITROGEN” value [3] was 15 mg/dL, the “CARBON DIOXIDE” value [3] was 30.67 mmol/L and the CHLORIDE [3] was 102 MEQ/L. The CHOLESTEROL [3] was 68 mg/dL, the “CREATINE PHOSPHOKINASE” value [3] was 336.67 u/L and the CREATININE [3] was 0.15 mg/dL. For the same molecule, the GLUCOSE [3] was 144.33 mg/dL, the “LACTATE DEHYDROGENASE” value [3] was 285.33 u/L and the LIPASE [3] was 9.33 u/L. For the same molecule, the PHOSPHORUS [3] was 11.33 mg/dL, the POTASSIUM [3] was 6.22 MEQ/L and the SODIUM [3] was 144.77 MEQ/L. For the same molecule, the “TOTAL BILIRUBIN” value [3] was 0.1 mg/dL, the “TOTAL PROTEIN” value [3] was 5.5 G/DL and the “URIC ACID” value [3] was 1.43 mg/dL.
